# Tested on: locally advanced or metastatic NSCLC (PD-L1-selected patients)
# Assay: BIRCH and FIR Phase II single-arm trials of atezolizumab monotherapy in PD-L1-selected NSCLC, efficacy by tTMB
# Type: in vivo, human
# Conditions: for Median OS / Median PFS: 1L BIRCH/FIR; for ORR / Odds Ratio for Response / OS HR (95% CI) / PFS HR (95% CI): BIRCH and FIR 2L+; for Odds Ratio for Response / OS HR (95% CI) / PFS HR (95% CI): TMB-high vs TMB-low; for OS HR (95% CI) / PFS HR (95% CI): unadjusted, unstratified
# Description: The correlation between the level of somatic mutations detected in a tumor tissue sample (e.g., mutation load, also referred to as tissue tumor mutational burden (tTMB)) and PD-L1 expression and their independent contribution to treatment with PD-L1 axis binding antagonists in non-small cell lung cancer (NSCLC) tumors was evaluated.
# Pre-treatment tumor specimens from 465 patients with 2 L+ NSCLC who were enrolled in one of the three Phase II clinical trials (BIRCH, FIR, and POPLAR; Table 4 and 5), in which atezolizumab was administered as a monotherapy, were evaluated for tissue tumor mutational burden (tTMB). Tumor specimens from 1 L NSCLC patients were also evaluated in the BIRCH and FIR studies.
# The efficacy analyses of the BIRCH population excluded these two untreated patients. Patients were eligible for enrollment in the BIRCH study if they had locally advanced or metastatic (e.g., stage IIIB, stage IV, or recurrent) NSCLC; a PD-L1-positive tumor status determined by an immunohistochemistry (IHC) assay based on PD-L1 expression in tumor infiltrating immune cells (IC) and/or tumor cells (TC); measurable disease, as defined by RECIST v1.1; and an Eastern Cooperative Oncology Group (ECOG) performance status of 0 or 1. Patients received atezolizumab at a dose of 1200 mg intravenously every three weeks for as long as patients were experiencing clinical benefit, i.e., in the absence of unacceptable toxicity or symptomatic deterioration attributed to disease progression.
# The FIR (Clinical Trial ID No.: NCT01846416) patient population evaluated for tTMB consisted of 33 patients. Patients were eligible for enrollment in the FIR study if they had stage IIIB (e.g., not eligible for treatment by definitive chemoradiotherapy), stage IV, or recurrent NSCLC; a PD-L1-positive status as determined by an IHC assay; an ECOG performance status of 0 or 1; a life expectancy 12 weeks; measurable disease, as defined by RECIST v1.1; and adequate hematologic and end organ function. Patients received an intravenous dose of 1200 mg atezolizumab on Day 1 of each 21-day cycle until disease progression.
# Data from the single-arm, PD-L1-selected trials BIRCH and FIR were combined and analyzed to examine the association between tTMB and clinical outcomes among PD-L1-selected patients. Data from the randomized, PD-L1-unselected trial, POPLAR, were analyzed separately and treatment effects between the atezolizumab- and docetaxel-treatment arms were compared.
# To identify somatic mutations, tumor samples (e.g., archival tumor samples) were processed as described in Frampton et al. Nat. Biotechnol. 31:1023-31, 2013. Sequencing libraries were constructed to sequence and analyze samples. In addition to standard mutation processing, a mutation load estimation algorithm was applied that, based on the number of somatic mutations and/or rearrangements detected in Table 1 or Table 2, respectively, extrapolates to the exome or the genome as a whole. For purposes of mutation load estimation, all coding short variant alterations, base substitutions, and indels detected in the genes listed in Table 1 and Table 2 were counted. Further, all coding alterations (base substitutions and indels), including synonymous alterations, with the exception of known oncogenic driver mutations, in the genes listed in Table 1 and Table 2 were counted. […]
# [1] = BEP (evaluable for TMB) (n = 102)
substance,measurement,setting,value
atezolizumab,Median OS,[1],20.1 months
same,Median PFS,[1],7.0 months
same,Median OS,ITT (n = 173),20.1 months
same,Median PFS,ITT (n = 173),6.9 months
same,Median PFS,tTMB score <9 mut/Mb (n = 45),4 months
same,Median OS,tTMB score <16 mut/Mb (n = 85),20.1 months
same,Median PFS,tTMB score <16 mut/Mb (n = 85),6 months
same,Median OS,tTMB score ≥9 mut/Mb (n = 57),20.1 months
same,Median PFS,tTMB score ≥9 mut/Mb (n = 57),8.3 months
same,Median PFS,tTMB score ≥16 mut/Mb (n = 17),11.1 months
same,ORR,TMB-high (at or above 25% tTMB quantile cutoff),22%
same,ORR,TMB-high (at or above 50% (median) tTMB cutoff),25%
same,ORR,TMB-high (at or above 75% tTMB quantile cutoff),29%
same,Odds Ratio for Response,25% tTMB cutoff,2.14
same,OS HR (95% CI),25% tTMB cutoff,"0.92 (0.64, 1.30)"
same,PFS HR (95% CI),25% tTMB cutoff,"0.79 (0.60, 1.00)"
same,Odds Ratio for Response,50% (median) tTMB cutoff,2.11
same,OS HR (95% CI),50% (median) tTMB cutoff,"0.87 (0.65, 1.16)"
same,PFS HR (95% CI),50% (median) tTMB cutoff,"0.64 (0.50, 0.80)"
same,Odds Ratio for Response,75% tTMB cutoff,2.20
same,OS HR (95% CI),75% tTMB cutoff,"0.70 (0.49, 1.00)"
same,PFS HR (95% CI),75% tTMB cutoff,"0.5 (0.38, 0.67)"
same,ORR,TMB-low (below 25% tTMB quantile cutoff),11%
same,ORR,TMB-low (below 50% (median) tTMB cutoff),14%
same,ORR,TMB-low (below 75% tTMB quantile cutoff),16%
same,association of tissue TMB with efficacy,"PD-L1-selected 2L+ patients with NSCLC, BIRCH and FIR",associated with improved efficacy
same,association of tTMB with efficacy,all lines evaluated (1L and 2L+) in FIR and BIRCH,associated with improved efficacy
